Laboratory results published in patent publication US20170189419A1, “PHARMACEUTICAL COMPOSITION FOR TREATING PROSTATE CANCER” (MA SHEN KAI RUEI CO., LTD., priority 2015, published 2017).

Assays:
[1] = system: human prostate-cancer cells PC3; assay: MTT survival assay, PC3 prostate cancer cells; type: cell-based; conditions: for half-maximal inhibitory concentration (IC50): PC3 cells; for survival rate / growth of prostate cancer cell: PC-3 cells, compound isolated from Extraction A
Excerpt: (§1) According to the present invention, the effects such as treating Prostate cancer, inhibiting the growth of Prostate cancer cell and others, of Antroquinonol B (AnQB) and/or Anctin K (AnK) may be tested by using any of the test methods used in the prior arts, for example, MTT assay of using 3-(4, 5-dimethylthiazol-2-yl)-2, S-diphenyl tetrazolium bromide (MTT) to determine cell survival rates of Prostate cancer cell lines.
(§2) The Antroquinonol B (AnQB) and Anctin K (AnK) separately isolated from the Extraction A of Example 1 were added into the culture media of human prostate-cancer cells, PC3 or DU-145, to test for tumor cell survival by using anti-cancer drug screen model. This survival assay was carried out with the widely known MTT (3-[4,5-dimethylthiazol-2-yl]2,5-diphenyltetrazolium bromide) assay.
(§3) The human prostate cancer cell lines, PC-3 and DU-145 were cultivated in media containing fetal calf serum for 18 hours. The proliferated cells were washed once with PBS, then treated with 1× trypsin-EDTA and centrifuged at 2500 rpm for […]. The supernatant was discarded and the cell pellet was re-suspended in 200 ml of fresh culture medium by gently shaking. The cells were placed in a 96-well plate.
(§4) Subsequently, the plates were read on an ELISA reader to determine the survival rates. The half maximal inhibitory concentration (IC50) values were calculated and results of ex vivo survival assay were thus obtained.
(§5) By using the same manner as the method described above, respectively human Prostate cancer cell line PC-3 and DU-145 was cultured. After then, the pharmaceutical compositions A˜F of the present invention was applied separately, and then MTT assay for each sample was measured to assess the inhibition effectiveness of various cancer cell activity while using pharmaceutical compositions A˜F of the present invention.

[2] = system: human prostate-cancer cells DU-145; assay: MTT survival assay, DU-145 prostate cancer cells; type: cell-based; conditions: DU-145 cells; for survival rate / growth of prostate cancer cell: compound isolated from Extraction A
Excerpt: as §1, §2, §3, §4, §5

| Compound | half-maximal inhibitory concentration (IC50) [1] | survival rate / growth of prostate cancer cell [1] | half-maximal inhibitory concentration (IC50) [2] | survival rate / growth of prostate cancer cell [2] |
| --- | --- | --- | --- | --- |
| C=C(CC[C@@H](C(=O)O)[C@H]1CC[C@@]2(C)C3=CC[C@H]4C(C)(C)[C@@H](O)CC[C@]4(C)C3=CC[C@]12C)C(C)C [Anctin K] | relatively low | can inhibit the growth | relatively low | can inhibit the growth |
| COC1=C(OC)[C@H](O)[C@H](C/C=C(\C)CC/C=C(/C)C/C=C/C(C)(C)O)[C@@H](C)C1=O [Antroquinonol B] | relatively low | can inhibit the growth | relatively low | can inhibit the growth |
